Results taken from patent publication US7157580B2, “Aminopyrimidine and aminopyridine anti-inflammation agents” (Roche Palo Alto LLC, priority 2001, dated 2007).

**Q.** With `Cn1cncc1-c1cc(/C=N/N(CCC(C)(C)O)C(N)=S)nc(NC2CCN(S(C)(=O)=O)CC2)n1` [Compound 96, 2-(1-methanesulfonyl-piperidin-4-ylamino)-6-(1-methyl-1H-imidazol-5-yl)-pyrimidine-4-carbaldehyde 2-(2-hydroxy-2-methyl-but-4-yl)-thiosemicarbazone] as the molecule, how does the melting point read?
**A.** 203.6 to 206 °C
